Source: ChEMBL document CHEMBL3044736, “Synthesis, characterization, solvatochromic properties, and antimicrobial evaluation of 5-acetyl-2-thioxo-dihydro-pyrimidine-4,6-dione-based chalcones” (2013)
Values after ≈ are worked out from the molar mass of the structure shown.

Legend:
Assay type in all cases: functional
[1] = system: Penicillium; assay: Antimicrobial activity against Penicillium wild strain assessed as diameter of growth inhibition zone at 250 ug/ml after 48-96 hr by agar cup diffusion method; settings: read-out: DIZ
[2] = system: Penicillium; assay: Antimicrobial activity against Penicillium wild strain assessed as diameter of growth inhibition zone at 100 ug/ml after 48-96 hr by agar cup diffusion method; settings: read-out: DIZ
[3] = system: Trichophyton rubrum; assay: Antimicrobial activity against Trichophyton rubrum MTCC 296 assessed as diameter of growth inhibition zone at 100 ug/ml after 48-96 hr by agar cup diffusion method; settings: read-out: DIZ
[4] = system: Aspergillus clavatus; assay: Antimicrobial activity against Aspergillus clavatus MTCC 1323 assessed as diameter of growth inhibition zone at 100 ug/ml after 48-96 hr by agar cup diffusion method; settings: read-out: DIZ
[5] = system: Candida albicans; assay: Antimicrobial activity against Candida albicans MTCC 227 assessed as diameter of growth inhibition zone at 100 ug/ml after 48-96 hr by agar cup diffusion method; settings: read-out: DIZ
[6] = system: Penicillium; assay: Antimicrobial activity against Penicillium wild strain assessed as diameter of growth inhibition zone at 50 ug/ml after 48-96 hr by agar cup diffusion method; settings: read-out: DIZ
[7] = system: Trichophyton rubrum; assay: Antimicrobial activity against Trichophyton rubrum MTCC 296 assessed as diameter of growth inhibition zone at 50 ug/ml after 48-96 hr by agar cup diffusion method; settings: read-out: DIZ
[8] = system: Aspergillus clavatus; assay: Antimicrobial activity against Aspergillus clavatus MTCC 1323 assessed as diameter of growth inhibition zone at 50 ug/ml after 48-96 hr by agar cup diffusion method; settings: read-out: DIZ
[9] = system: Candida albicans; assay: Antimicrobial activity against Candida albicans MTCC 227 assessed as diameter of growth inhibition zone at 50 ug/ml after 48-96 hr by agar cup diffusion method; settings: read-out: DIZ
[10] = system: Penicillium; assay: Antimicrobial activity against Penicillium wild strain assessed as diameter of growth inhibition zone at 25 ug/ml after 48-96 hr by agar cup diffusion method; settings: read-out: DIZ
[11] = system: Trichophyton rubrum; assay: Antimicrobial activity against Trichophyton rubrum MTCC 296 assessed as diameter of growth inhibition zone at 25 ug/ml after 48-96 hr by agar cup diffusion method; settings: read-out: DIZ
[12] = system: Aspergillus clavatus; assay: Antimicrobial activity against Aspergillus clavatus MTCC 1323 assessed as diameter of growth inhibition zone at 25 ug/ml after 48-96 hr by agar cup diffusion method; settings: read-out: DIZ
[13] = system: Candida albicans; assay: Antimicrobial activity against Candida albicans MTCC 227 assessed as diameter of growth inhibition zone at 25 ug/ml after 48-96 hr by agar cup diffusion method; settings: read-out: DIZ
[14] = system: Penicillium; assay: Antimicrobial activity against Penicillium wild strain by agar cup diffusion method
[15] = system: Aspergillus clavatus; assay: Antimicrobial activity against Aspergillus clavatus MTCC 1323 by agar cup diffusion method
[16] = system: Pseudomonas aeruginosa; assay: Antimicrobial activity against Pseudomonas aeruginosa MTCC 1688 assessed as diameter of growth inhibition zone at 25 ug/ml after 18-24 hr by agar cup diffusion method; settings: read-out: DIZ
[17] = system: Escherichia coli; assay: Antimicrobial activity against Escherichia coli MTCC 443 assessed as diameter of growth inhibition zone at 25 ug/ml after 18-24 hr by agar cup diffusion method; settings: read-out: DIZ
[18] = system: Staphylococcus aureus; assay: Antimicrobial activity against Staphylococcus aureus MTCC 96 assessed as diameter of growth inhibition zone at 25 ug/ml after 18-24 hr by agar cup diffusion method; settings: read-out: DIZ
[19] = system: Streptococcus pyogenes; assay: Antimicrobial activity against Streptococcus pyogenes MTCC 442 assessed as diameter of growth inhibition zone at 25 ug/ml after 18-24 hr by agar cup diffusion method; settings: read-out: DIZ
[20] = system: Klebsiella pneumoniae; assay: Antimicrobial activity against Klebsiella pneumoniae MTCC 109 by agar cup diffusion method
[21] = system: Escherichia coli; assay: Antimicrobial activity against Escherichia coli MTCC 443 by agar cup diffusion method
[22] = system: Pseudomonas aeruginosa; assay: Antimicrobial activity against Pseudomonas aeruginosa MTCC 1688 by agar cup diffusion method
[23] = system: Staphylococcus aureus; assay: Antimicrobial activity against Staphylococcus aureus MTCC 96 by agar cup diffusion method
[24] = system: Streptococcus pyogenes; assay: Antimicrobial activity against Streptococcus pyogenes MTCC 442 by agar cup diffusion method
[25] = system: Trichophyton rubrum; assay: Antimicrobial activity against Trichophyton rubrum MTCC 296 by agar cup diffusion method
[26] = system: Candida albicans; assay: Antimicrobial activity against Candida albicans MTCC 227 by agar cup diffusion method
[27] = system: Klebsiella pneumoniae; assay: Antimicrobial activity against Klebsiella pneumoniae MTCC 109 assessed as diameter of growth inhibition zone at 250 ug/ml after 18-24 hr by agar cup diffusion method; settings: read-out: DIZ
[28] = system: Pseudomonas aeruginosa; assay: Antimicrobial activity against Pseudomonas aeruginosa MTCC 1688 assessed as diameter of growth inhibition zone at 250 ug/ml after 18-24 hr by agar cup diffusion method; settings: read-out: DIZ
[29] = system: Escherichia coli; assay: Antimicrobial activity against Escherichia coli MTCC 443 assessed as diameter of growth inhibition zone at 250 ug/ml after 18-24 hr by agar cup diffusion method; settings: read-out: DIZ
[30] = system: Staphylococcus aureus; assay: Antimicrobial activity against Staphylococcus aureus MTCC 96 assessed as diameter of growth inhibition zone at 250 ug/ml after 18-24 hr by agar cup diffusion method; settings: read-out: DIZ
[31] = system: Streptococcus pyogenes; assay: Antimicrobial activity against Streptococcus pyogenes MTCC 442 assessed as diameter of growth inhibition zone at 250 ug/ml after 18-24 hr by agar cup diffusion method; settings: read-out: DIZ
[32] = system: Klebsiella pneumoniae; assay: Antimicrobial activity against Klebsiella pneumoniae MTCC 109 assessed as diameter of growth inhibition zone at 100 ug/ml after 18-24 hr by agar cup diffusion method; settings: read-out: DIZ
[33] = system: Pseudomonas aeruginosa; assay: Antimicrobial activity against Pseudomonas aeruginosa MTCC 1688 assessed as diameter of growth inhibition zone at 100 ug/ml after 18-24 hr by agar cup diffusion method; settings: read-out: DIZ
[34] = system: Escherichia coli; assay: Antimicrobial activity against Escherichia coli MTCC 443 assessed as diameter of growth inhibition zone at 100 ug/ml after 18-24 hr by agar cup diffusion method; settings: read-out: DIZ
[35] = system: Staphylococcus aureus; assay: Antimicrobial activity against Staphylococcus aureus MTCC 96 assessed as diameter of growth inhibition zone at 100 ug/ml after 18-24 hr by agar cup diffusion method; settings: read-out: DIZ
[36] = system: Streptococcus pyogenes; assay: Antimicrobial activity against Streptococcus pyogenes MTCC 442 assessed as diameter of growth inhibition zone at 100 ug/ml after 18-24 hr by agar cup diffusion method; settings: read-out: DIZ
[37] = system: Klebsiella pneumoniae; assay: Antimicrobial activity against Klebsiella pneumoniae MTCC 109 assessed as diameter of growth inhibition zone at 50 ug/ml after 18-24 hr by agar cup diffusion method; settings: read-out: DIZ
[38] = system: Pseudomonas aeruginosa; assay: Antimicrobial activity against Pseudomonas aeruginosa MTCC 1688 assessed as diameter of growth inhibition zone at 50 ug/ml after 18-24 hr by agar cup diffusion method; settings: read-out: DIZ
[39] = system: Escherichia coli; assay: Antimicrobial activity against Escherichia coli MTCC 443 assessed as diameter of growth inhibition zone at 50 ug/ml after 18-24 hr by agar cup diffusion method; settings: read-out: DIZ
[40] = system: Staphylococcus aureus; assay: Antimicrobial activity against Staphylococcus aureus MTCC 96 assessed as diameter of growth inhibition zone at 50 ug/ml after 18-24 hr by agar cup diffusion method; settings: read-out: DIZ
[41] = system: Streptococcus pyogenes; assay: Antimicrobial activity against Streptococcus pyogenes MTCC 442 assessed as diameter of growth inhibition zone at 50 ug/ml after 18-24 hr by agar cup diffusion method; settings: read-out: DIZ
[42] = system: Klebsiella pneumoniae; assay: Antimicrobial activity against Klebsiella pneumoniae MTCC 109 assessed as diameter of growth inhibition zone at 25 ug/ml after 18-24 hr by agar cup diffusion method; settings: read-out: DIZ
[43] = system: Trichophyton rubrum; assay: Antimicrobial activity against Trichophyton rubrum MTCC 296 assessed as diameter of growth inhibition zone at 250 ug/ml after 48-96 hr by agar cup diffusion method; settings: read-out: DIZ
[44] = system: Aspergillus clavatus; assay: Antimicrobial activity against Aspergillus clavatus MTCC 1323 assessed as diameter of growth inhibition zone at 250 ug/ml after 48-96 hr by agar cup diffusion method; settings: read-out: DIZ
[45] = system: Candida albicans; assay: Antimicrobial activity against Candida albicans MTCC 227 assessed as diameter of growth inhibition zone at 250 ug/ml after 48-96 hr by agar cup diffusion method; settings: read-out: DIZ

O=C(/C=C/c1cccc([N+](=O)[O-])c1)C1C(=O)NC(=S)NC1=O
zone of inhibition at 250 µg/mL [1]: 22 mm | zone of inhibition at 100 µg/mL [2]: 21 mm | zone of inhibition at 100 µg/mL [3]: 22 mm | zone of inhibition at 100 µg/mL [4]: 22 mm | zone of inhibition at 100 µg/mL [5]: 23 mm | zone of inhibition at 50 µg/mL [6]: 20 mm | zone of inhibition at 50 µg/mL [7]: 21 mm | zone of inhibition at 50 µg/mL [8]: 22 mm | zone of inhibition at 50 µg/mL [9]: 22 mm | zone of inhibition at 25 µg/mL [10]: 18 mm | zone of inhibition at 25 µg/mL [11]: 18 mm | zone of inhibition at 25 µg/mL [12]: 20 mm | zone of inhibition at 25 µg/mL [13]: 21 mm | MFC [14]: 1000 µg/mL (≈ 3130 µM) | MIC [14]: 1000 µg/mL (≈ 3130 µM) | MFC [15]: 1000 µg/mL (≈ 3130 µM) | MIC [15]: 1000 µg/mL (≈ 3130 µM) | zone of inhibition at 25 µg/mL [16]: 14 mm | zone of inhibition at 25 µg/mL [17]: 15 mm | zone of inhibition at 25 µg/mL [18]: 14 mm | zone of inhibition at 25 µg/mL [19]: 15 mm | MBC [20]: 100 µg/mL (≈ 313 µM) | MIC [20]: 62.5 µg/mL (≈ 196 µM) | MBC [21]: 100 µg/mL (≈ 313 µM) | MIC [21]: 100 µg/mL (≈ 313 µM) | MBC [22]: 200 µg/mL (≈ 626 µM) | MIC [22]: 125 µg/mL (≈ 391 µM) | MBC [23]: 250 µg/mL (≈ 783 µM) | MIC [23]: 200 µg/mL (≈ 626 µM) | MBC [24]: 250 µg/mL (≈ 783 µM) | MIC [24]: 200 µg/mL (≈ 626 µM) | MFC [25]: 1000 µg/mL (≈ 3130 µM) | MIC [25]: 1000 µg/mL (≈ 3130 µM) | MFC [26]: 1000 µg/mL (≈ 3130 µM) | MIC [26]: 1000 µg/mL (≈ 3130 µM) | zone of inhibition at 250 µg/mL [27]: 18 mm | zone of inhibition at 250 µg/mL [28]: 19 mm | zone of inhibition at 250 µg/mL [29]: 18 mm | zone of inhibition at 250 µg/mL [30]: 19 mm | zone of inhibition at 250 µg/mL [31]: 18 mm | zone of inhibition at 100 µg/mL [32]: 17 mm | zone of inhibition at 100 µg/mL [33]: 17 mm | zone of inhibition at 100 µg/mL [34]: 18 mm | zone of inhibition at 100 µg/mL [35]: 17 mm | zone of inhibition at 100 µg/mL [36]: 18 mm | zone of inhibition at 50 µg/mL [37]: 14 mm | zone of inhibition at 50 µg/mL [38]: 16 mm | zone of inhibition at 50 µg/mL [39]: 17 mm | zone of inhibition at 50 µg/mL [40]: 16 mm | zone of inhibition at 50 µg/mL [41]: 17 mm | zone of inhibition at 25 µg/mL [42]: 10 mm | zone of inhibition at 250 µg/mL [43]: 27 mm | zone of inhibition at 250 µg/mL [44]: 24 mm | zone of inhibition at 250 µg/mL [45]: 24 mm
